Among the data in ChEMBL document CHEMBL1128105, “Synthesis of new azino fused benzimidazolium salts. a new family of DNA intercalating agents. I” (Bioorg Med Chem Lett, 1995) are EC50 values, retold here.

A value given as a limit tells only on which side of the number the result lay.

The assay concerns HT-29. In words: In vitro inhibitory activity against colon carcinoma HT-29 cells after 72 hr using in-house program. In kind it is functional, cell-based. Particulars: Homo sapiens, HT-29, 72 h.
On to `Nn1c2ccccc2[n+]2nc3c(cc12)-c1cccc2cccc-3c12`, for which the 50% effective concentration (EC50) stood at 37 µM.

With `c1ccc(Cn2c3ccccc3[n+]3nc4c(cc23)-c2cccc3cccc-4c23)cc1`, it took 1.5 µM to reach a half-maximal effect (EC50).

Regarding `Cn1c2ccccc2[n+]2nc3c(cc12)-c1cccc2cccc-3c12`, the concentration for a half-maximal effect (EC50) stood at 3.7 µM.

The compound `COC(=O)c1ccc(Cn2c3ccccc3[n+]3nc4c(cc23)-c2cccc3cccc-4c23)cc1` showed an EC50 of 24 µM.

Turning to `NCCNC(=O)Cn1c2ccccc2[n+]2nc3c(cc12)-c1cccc2cccc-3c12`, the half-maximal effective concentration (EC50) is > 100 µM.

`CCOC(=O)c1c2c(cc3n(Cc4ccccc4)c4ccccc4[n+]13)-c1cccc3cccc-2c13`: the EC50 worked out at 2.1 µM.

`c1ccc(Cn2c3ccccc3[n+]3nc4c(c(-c5ccccc5)c23)-c2cccc3cccc-4c23)cc1` came in with an EC50 of 3.7 µM.

Compound `CCOC(=O)Cn1c2ccccc2[n+]2c(C(=O)OCC)c3c(cc12)-c1cccc2cccc-3c12` came in with a half-maximal effective concentration (EC50) of 1.8 µM.

With `CCOC(=O)Cn1c2ccccc2[n+]2nc3c(cc12)-c1cccc2cccc-3c12`, the 50% effective concentration (EC50) was found to be 54 µM.

By EC50 is commonly meant the concentration that produces a half-maximal response. A high value points to a need for much substance.
